# According to paper PMC7053711, “A G protein–coupled receptor mediates neuropeptide-induced oocyte maturation in the jellyfish Clytia” (PLoS Biology, 2020):
# Peptide text beside a SMILES is read from it.
# Key:
# Assay type in all cases: cell-based, Clytia hemisphaerica
# [1] = test system: Clytia MIHR; assay: Dose–response curves of Clytia MIHR, luminescence (CHO-K1 cells, Gα-16, GFP-apoaequorin); parameters: key to Span (best-fit value) / Bottom (best-fit value): % activation, normalized to fitted upper plateau (100%); settings: for EC50: four-parameter fit, variable slope, triplicate; for HillSlope / LogEC50: best-fit value; for Bottom / Span / Top: best-fit value (luminescence)
# Protocol: The Clytia MIH amidated peptides are produced from two precursor genes Che-pp4 (generating multiple copies of WPRAamide, WPRYamide, and WPRPamide) and Che-pp1 (multiple copies of WPRPamide and RPRGamide).
# Cell culture GPCR ligand response assays were performed as described. Briefly, CHO-K1 cells were cultured in Ham’s F12 Nut Mix medium (Thermo Fisher Scientific) with 10% foetal bovine serum. Cells were seeded in 96-well plates at approximately 10,000 cells/well and transfected the following day with pcDNA3.1(+) plasmids encoding each of the 16 candidate Clytia GPCRs (S2 Text), the promiscuous Gα-16 protein [65], and a reporter construct GFP-apoaequorin [66] (60 ng each) using the transfection reagent TurboFect (Thermo Fisher Scientific). After 2 days of expression, the medium was removed and replaced with Hank’s balanced salt solution (HBSS) supplemented with 1.8 mM Ca2+, 10 mM glucose, and […] coelenterazine h (Promega, Madison, WI). After incubation at 37 °C for 2 hours, cells were tested by adding synthetic peptides (GenScript) in HBSS supplemented with 1.8 mM Ca2^+ and 10 mM glucose. A list of all synthetic peptides used is provided in S2 Table. Luminescence was recorded for 45 seconds in a plate reader (BioTek Synergy Mx or Synergy H4; BioTek, Winooski, VT). Data were integrated over the 45-second measurement period and recorded as technical triplicates in each case. Data were normalized using the response of Platynereis FLamide receptor to 1 μM AKYFL-NH2 [28]. Dose–response curves were obtained using concentrations between 0.01 nM and 100 μM for each peptide. Data for dose–response curves were recorded in triplicate for each concentration and the experiment was repeated independently 3 times. Dose–response curves were fitted with a four-parameter curve using Prism 6 (GraphPad, La Jolla, CA) and were normalized to the calculated upper plateau values (100% activation).
# Supplementary file pbio.3000614.s012.xlsx: S2 Data Numerical data corresponding to Fig 1C. The first three tabs show statistical values obtained using Prism 6 software (GraphPad, La Jolla, CA) from the raw luminescence values for 3 independent dose–response experiments. The raw luminescence values are shown, as well as the values normalized with respect to the maximum. […] MIH, maturation-inducing hormone. (XLSX) Click here for additional data file.
# [2] = test system: fully grown oocytes isolated from WT gonads; assay: Oocyte maturation assay, wild-type isolated oocytes (GVBD); settings: for Oocyte maturation (number) / Percentage of Oocytes maturing: 0,1uM WPRPa, wild type
# Description: (§1) Fig 4 Oocyte maturation failure in MIHR mutant medusae. Oocyte maturation assays performed using isolated gonads (A, B) or isolated oocytes (C) from MIHR mutant jellyfish compared to WT. In A and C, bar heights represent mean percentages of 3 independent experiments and error bars show standard deviations. Total gonad or oocyte numbers for each treatment are indicated in gray. (A) Spawning response of isolated gonads from WT and n5-23 female medusae. Three treatments were compared as indicated above each panel: Light: light stimulation after incubation in the dark; MIH: treatment of light-maintained gonads with 100 nM WPRPamide; cAMP: treatment of light-maintained gonads with 4 mM Br-cAMP. […] Full datasets from three independent experiments are available in S3 Data. (B) Light microscope images illustrating gonads from an equivalent experiment performed with n5-13 female MIHR mutant medusae 120 minutes after the indicated treatments. Scale bar: 500 μm. […] Full datasets from 3 independent experiments are available in S3 Data. Br-cAMP, bromoadenosine 3′,5′-cyclic monophosphate; cAMP, cyclic adenosine monophosphate; KO, knockout; MIH, maturation-inducing hormone; MIHR, MIH receptor; WT, wild-type.
# (§2) Fully grown oocytes were isolated manually from dissected gonads of wild-type and MIHR KO mutant jellyfish prepared as above. Maturation assays were performed in wells of 96-well plates or small plastic petri dishes lined with 2% agarose in MFSW. Spontaneous maturation occurs at a low frequency in control oocytes. To test MIH-induced maturation, 10 μL WPRPamide from 1 μM solution in MFSW was added to a final concentration of 100 nM. In some experiments, Br-cAMP from a 20 mM stock in H2O was used at a final concentration of 4 mM. GVBD was scored at 30 minutes, every 5 minutes, depending on experiments.
# (§3) Supplementary file pbio.3000614.s013.xlsx: S3 Data Numerical data corresponding to Fig 4A and 4C. The first tab collects all the raw data from 3 independent gonad spawning assays. Information corresponding to the Fisher exact tests is also shown. […] The means and standard deviations were used to prepare the graph in Fig 4C. Information corresponding to the Fisher exact tests is also shown. (XLSX) Click here for additional data file.
# [3] = test system: fully grown oocytes isolated from MIHR mutant (n5-23) gonads; assay: Oocyte maturation assay, MIHR mutant isolated oocytes (GVBD); settings: for Oocyte maturation (number) / Percentage of Oocytes maturing: 0,1uM WPRPa, MIH R K.O.
# Description: as §1, §2, §3
# [4] = log(agonist) vs. response, variable slope (four parameters), fit of third dataset
# [5] = 100 nM WPRPamide or 4 mM Br-cAMP
# [6] = WPRPa, pooled n=47, Fisher exact test vs MIHR KO significant at p < .01
# [7] = WPRPa, pooled n=46, Fisher exact test vs WT significant at p < .01
smiles,measurement,setting,value
N=C(N)NCCC[C@H](NC(=O)[C@@H]1CCCN1C(=O)[C@@H](N)Cc1c[nH]c2ccccc12)C(=O)N1CCC[C@H]1C(N)=O [WPRPa] (H-WPRP-NH2; N-terminus assumed),EC50,[1]; dataset/experiment 1,220 nM
same,EC50,[1]; dataset/experiment 2,928 nM
same,HillSlope,[1]; first dataset,1.128
same,LogEC50,[1]; first dataset,-6.658
same,Bottom,[1]; first dataset,935
same,Span,[1]; first dataset,46105
same,Top,[1]; first dataset,47040
same,Bottom (best-fit value),[1]; [4],10.51
same,HillSlope (best-fit value),[1]; [4],1.078
same,LogEC50 (best-fit value),[1]; [4],-6.286
same,Span (best-fit value),[1]; [4],89.49
same,HillSlope,[1]; second dataset,0.9926
same,LogEC50,[1]; second dataset,-6.033
same,Bottom,[1]; second dataset,1493
same,Span,[1]; second dataset,22106
same,Top,[1]; second dataset,23599
same,Oocyte maturation (number),"[2]; replicate 1, total 13",13
same,Percentage of Oocytes maturing,"[2]; replicate 1, total 13",100.00
same,Oocyte maturation (number),"[2]; replicate 2, total 19",19
same,Percentage of Oocytes maturing,"[2]; replicate 2, total 19",100.00
same,Oocyte maturation (number),"[2]; replicate 3, total 15.00",15
same,Percentage of Oocytes maturing,"[2]; replicate 3, total 15.00",100.00
same,maturation of isolated WT oocytes,[2]; [5],triggered maturation of WT oocytes
same,"time to visible GVBD, isolated WT oocytes",[2]; [5],20 to 30 min
same,"Maturing oocytes, WT YES",[2]; [6],47
same,"Non-maturing oocytes, WT NO",[2]; [6],0
same,Oocyte maturation (number),"[3]; replicate 1, total 14",1
same,Percentage of Oocytes maturing,"[3]; replicate 1, total 14",7.14
same,Oocyte maturation (number),"[3]; replicate 2, total 11",0
same,Percentage of Oocytes maturing,"[3]; replicate 2, total 11",0.00
same,Oocyte maturation (number),"[3]; replicate 3, total 21.00",2
same,Percentage of Oocytes maturing,"[3]; replicate 3, total 21.00",9.52
same,"Maturing oocytes, MIHR KO YES",[3]; [7],3
same,"Non-maturing oocytes, MIHR KO NO",[3]; [7],43
